Assays:
[1] = system: mouse Lewis lung adenocarcinoma; set-up: method as in PMID 34370156; details: cited from earlier work
cells = details: cited from earlier work; for CC50: read-out: CC50 values (toxicity to cells)
Tdp1 = target: T1, Tdp1 (Homo sapiens, UniProt Q9NUW8); assay: Tdp1 inhibition, fluorescent oligonucleotide biosensor; format: biochemical; details: purified Tdp1 1.5 nM, 50 nM biosensor; read-out: Concentration of half-maximal inhibition of Tdp1 (IC50)
T1 construct: Purified Tdp1 (1.5 nM) triggered the reaction
Description: The inhibitory properties of the compound on the purified Tdp1 was studied using a technique developed previously by our team. A 16-mer single-stranded oligonucleotide carrying a fluorophore at the 5′-end and a quencher at the 3′-end was used as a biosensor. When within the Förster radius, the quencher suppressed the fluorescence of the fluorophore. The quencher was removed by Tdp1, resulting in fluorescence emission. Usnic acid derivatives with a bromophenol residue in the enamine fragment (compounds 6 and 8) inhibit the enzyme with half-maximal inhibition concentrations (IC50) an order of magnitude worse than derivatives with a di-tert-butyl fragment (compounds 5 and 7).
An oligonucleotide 5′-[FAM] AAC GTC AGGGTC TTC C [BHQ1]-3′ synthesized in the laboratory Laboratory of Nucleic Acids Chemistry at the Institute of Chemical Biology and Fundamental Medicine (Novosibirsk, Russia) was used as a biosensor. Removal of the quencher (BHQ1) due to enzyme activity leads to increased fluorescence of FAM. The reaction was carried out at different concentrations of inhibitors (1.5% of DMSO, Sigma, St. Louis, MO, USA, in the control samples). The reaction mixtures contained Tdp1 buffer (50 mM Tris-HCl pH 8.0, 50 mM NaCl, and 7 mM β-mercaptoethanol), 50 nM biosensor, and an inhibitor being tested. Purified Tdp1 (1.5 nM) triggered the reaction.
The fluorescence was measured using POLARstar OPTIMA fluorimeter (BMG LABTECH, GmbH, Ortenberg, Germany). The values of IC50 were determined in minimum three independent experiments and were calculated using embedded software MARS Data Analysis 2.0 (BMG LABTECH, GmbH, Ortenberg, Germany).

[2] = MTT cytotoxicity test, HCT-116; format: cell-based; details: human, HCT-116 cells (colorectal cancer), read-out: semitoxic concentration (CC50), HCT-116
Description: (§1) Compounds 6 and 8 with a bromophenol residue in the enamine fragment have a weak or moderate effect on cell survival (Table 1 and Supplementary Figure S1).
(§2) Cytotoxicity of the compounds against human tumor cell lines: HeLa (cervical cancer), HCT-116 (colorectal cancer), A-549 (lung cancer), MCF-7 (breast cancer), T98G (glioblastoma), HepG2 (hepatocarcinoma), and nontumor cell lines: MRC-5 (lung fibroblasts) and HEK293A (human embryonic kidney) was examined using the MTT test. HCT-116 and MRC-5 cell lines were provided by the Cell Culture Bank of the State Research Center for Virology and Biotechnology Vector, Novosibirsk, Russia. A-549, MCF-7, and T98G cell lines were obtained from the Russian Cell Culture Collection (RCCC) Institute of Cytology RAS (St. Petersburg, Russia). HEK293A cells were purchased (ThermoFisher Scientific, Waltham, MA, USA).
(§3) The cell culture medium DMEM medium (Invitrogen, Carlsbad, CA, USA) contained 10% fetal bovine serum (FBS) (Invitrogen), penicillin (100 units/mL), and streptomycin (100 µg/mL). Cells were seeded into 96-well plates at 5000 cells per well and grown at 37 °C and 5% CO2 in a humid atmosphere. At 30–50% confluence, the tested compounds were added to the medium to a final DMSO content of 1%. Control wells contained 1% DMSO. To determine the cytotoxicity of Tdp1 inhibitors, the cells were treated with compounds with concentrations ranging from 1 to 100 µM for 72 h at 37 °C for 72 h. All measurements were repeated a minimum of twice.

[3] = MTT cytotoxicity test, A-549; format: cell-based; details: human, A-549 cells (lung cancer), read-out: semitoxic concentration (CC50), A-549
Description: as §1, §2, §3

[4] = MTT cytotoxicity test, MCF-7; format: cell-based; details: human, MCF-7 cells (breast cancer), read-out: semitoxic concentration (CC50), MCF-7
Description: as §1, §2, §3

[5] = MTT cytotoxicity test, HEK293A; format: cell-based; details: human, HEK293A cells (embryonic kidney, nontumor), read-out: semitoxic concentration (CC50), HEK293A
Description: as §1, §2, §3

[6] = MTT cytotoxicity test, T98G; format: cell-based; details: human, T98G cells (glioblastoma), read-out: semitoxic concentration (CC50), T98G
Description: as §1, §2, §3

[7] = MTT cytotoxicity test, MRC-5; format: cell-based; details: human, MRC-5 cells (lung fibroblasts, nontumor), read-out: semitoxic concentration (CC50), MRC-5
Description: as §1, §2, §3

[8] = system: various types of cultured cells; assay: MTT test, panel of cultured cell lines; format: cell-based; details: at concentrations up to 100 μM; wide panel of tumor and non-cancerous cell lines
Description: as §1, §2
as §3, with “To determine the cytotoxicity of Tdp1 inhibitors, the cells were treated with compounds with concentrations ranging from 1 to 100 µM for 72 h at 37 °C for 72 h. All measurements were repeated a minimum of twice.” left out

[9] = MTT cytotoxicity test, HeLa; format: cell-based; details: human, HeLa cells (cervical cancer), read-out: semitoxic concentration (CC50), HeLa
Description: as §1, §2, §3

T1 sequence (Q9NUW8 whole entry): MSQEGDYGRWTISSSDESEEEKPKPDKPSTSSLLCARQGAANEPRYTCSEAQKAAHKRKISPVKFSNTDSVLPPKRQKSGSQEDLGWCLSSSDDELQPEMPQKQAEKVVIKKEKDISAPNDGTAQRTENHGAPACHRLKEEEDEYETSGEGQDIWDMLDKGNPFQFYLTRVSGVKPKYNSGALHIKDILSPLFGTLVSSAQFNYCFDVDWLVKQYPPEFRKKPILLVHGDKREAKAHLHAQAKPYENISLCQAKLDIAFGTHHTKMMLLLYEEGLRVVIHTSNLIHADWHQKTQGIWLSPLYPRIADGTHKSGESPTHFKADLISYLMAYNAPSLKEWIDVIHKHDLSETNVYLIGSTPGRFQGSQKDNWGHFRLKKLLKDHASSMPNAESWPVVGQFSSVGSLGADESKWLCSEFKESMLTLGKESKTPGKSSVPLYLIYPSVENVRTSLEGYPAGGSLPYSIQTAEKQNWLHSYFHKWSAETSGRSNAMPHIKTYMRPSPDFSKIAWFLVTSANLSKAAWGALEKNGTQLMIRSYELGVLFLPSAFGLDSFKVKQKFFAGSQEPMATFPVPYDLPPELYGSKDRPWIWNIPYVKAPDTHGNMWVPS

Compound: CC(=O)c1c(O)c(C)c(O)c2c1OC1=CC(=O)/C(=C(\C)NCCCc3cc(C(C)(C)C)c(O)c(C(C)(C)C)c3)C(=O)[C@@]12C [Compound 1]
- enhancement of the antitumor effect of topotecan [1]: enhanced at least twofold
- toxicity to the different cell types (in words) (cells): nontoxic

Compound: CC(=O)c1c(O)c(C)c(O)c2c1OC1=CC(=O)/C(=C(\C)Nc3ccc(Br)cc3)C(=O)[C@@]12C [Compound 2]
- toxicity to the different cell types (in words) (cells): nontoxic

Compound: CC(=O)C1=C(O)C=C2Oc3c(-c4csc(N/N=C/c5ccc(Br)s5)n4)c(O)c(C)c(O)c3[C@@]2(C)C1=O [Compound 3]
- CC50 (cells): 9 to 16 µM

Compound: CC(=O)C1=C(O)C=C2Oc3c(-c4csc(N/N=C/c5ccc(Br)cc5)n4)c(O)c(C)c(O)c3[C@@]2(C)C1=O [Compound 4, reference compound]
- IC50 (Tdp1): 0.03 ± 0.01 µM
- CC50 at 72 h [2]: 7 ± 0.6 µM
- CC50 at 72 h [3]: 3.9 ± 0.2 µM
- CC50 (cells): 1.5 µM
- CC50 at 72 h [4]: 9.3 ± 2.2 µM
- CC50 at 72 h [5]: 12 ± 5 µM
- CC50 at 72 h [6]: 4 ± 1 µM
- CC50 at 72 h [7]: 7 ± 0.7 µM

Compound: C/C(NCCCc1cc(C(C)(C)C)c(O)c(C(C)(C)C)c1)=C1\C(=O)C=C2Oc3c(-c4csc(N/N=C/c5ccc(Br)s5)n4)c(O)c(C)c(O)c3[C@@]2(C)C1=O [Compound 5, (4E)-10-{2-[(E)-2-[(5-bromothiophenyl)methylidene]hydrazin-1-yl]-1,3-thiazole-4-yl}-4-(1-{[3-(3,5-di-tret-butyl-4-hydroxyhenyl)propyl]amino}ethylidene)-11,13-dihydroxy-2,12-dimethyl-8-oxatricyclo [7.4.0.02,7]trideca-1(13),6,9,11-tetraen-3,5-dione]
- IC50 (Tdp1): 0.14 ± 0.02 µM
- CC50 at 72 h [2]: > 100 µM
- CC50 at 72 h [3]: > 100 µM
- CC50 at 72 h [4]: > 100 µM
- CC50 at 72 h [5]: > 100 µM
- living cells (metabolic activity, MTT) [8]: more than 50%
- CC50 at 72 h [6]: > 100 µM
- CC50 at 72 h [9]: > 100 µM
- CC50 at 72 h [7]: > 100 µM

Compound: C/C(Nc1ccc(Br)cc1)=C1\C(=O)C=C2Oc3c(-c4csc(N/N=C/c5ccc(Br)cc5)n4)c(O)c(C)c(O)c3[C@@]2(C)C1=O [Compound 8, (4E)-4-{1-[(4-bromophenyl)amino]ethilidene}-10-{2-[(E)-2-[(4-bromophenyl)methylidene]hydrazin-1-yl]-1,3-thiazol-4-yl}-11,13-dihydroxy-2,12-dimethyl-8-oxatricyclo [7.4.0.02,7]trideca-1(13),6,9,11-tetraen-3,5-dione]
- IC50 (Tdp1): 5 ± 1 µM
- CC50 at 72 h [3]: 30 ± 10 µM
- CC50 at 72 h [4]: 30 ± 20 µM
- CC50 at 72 h [5]: 88 ± 26 µM
- CC50 at 72 h [6]: 44 ± 13 µM
- CC50 at 72 h [9]: > 100 µM
